# Results taken from article doi:10.1101/2024.02.12.580006v1 (biorxiv, 2024).
# T1: SeHas (Streptococcus dysgalactiae, UniProt O50201)
# T1 sequence (O50201 1-417): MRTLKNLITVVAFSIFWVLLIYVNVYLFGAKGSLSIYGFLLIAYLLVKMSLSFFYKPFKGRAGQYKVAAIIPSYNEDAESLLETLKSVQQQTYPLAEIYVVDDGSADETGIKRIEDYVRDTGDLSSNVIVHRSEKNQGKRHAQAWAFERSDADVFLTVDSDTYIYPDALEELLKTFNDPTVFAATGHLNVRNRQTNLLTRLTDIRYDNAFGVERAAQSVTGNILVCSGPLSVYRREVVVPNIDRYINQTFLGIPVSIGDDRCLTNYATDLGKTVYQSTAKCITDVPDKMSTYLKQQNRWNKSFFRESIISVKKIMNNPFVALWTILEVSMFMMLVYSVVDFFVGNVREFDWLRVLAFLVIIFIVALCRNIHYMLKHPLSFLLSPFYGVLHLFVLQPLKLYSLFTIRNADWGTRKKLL
# T2: PttCesA8 (Populus tremula x Populus tremuloides, UniProt Q6J8X0)
# T2 sequence (Q6J8X0 1-978): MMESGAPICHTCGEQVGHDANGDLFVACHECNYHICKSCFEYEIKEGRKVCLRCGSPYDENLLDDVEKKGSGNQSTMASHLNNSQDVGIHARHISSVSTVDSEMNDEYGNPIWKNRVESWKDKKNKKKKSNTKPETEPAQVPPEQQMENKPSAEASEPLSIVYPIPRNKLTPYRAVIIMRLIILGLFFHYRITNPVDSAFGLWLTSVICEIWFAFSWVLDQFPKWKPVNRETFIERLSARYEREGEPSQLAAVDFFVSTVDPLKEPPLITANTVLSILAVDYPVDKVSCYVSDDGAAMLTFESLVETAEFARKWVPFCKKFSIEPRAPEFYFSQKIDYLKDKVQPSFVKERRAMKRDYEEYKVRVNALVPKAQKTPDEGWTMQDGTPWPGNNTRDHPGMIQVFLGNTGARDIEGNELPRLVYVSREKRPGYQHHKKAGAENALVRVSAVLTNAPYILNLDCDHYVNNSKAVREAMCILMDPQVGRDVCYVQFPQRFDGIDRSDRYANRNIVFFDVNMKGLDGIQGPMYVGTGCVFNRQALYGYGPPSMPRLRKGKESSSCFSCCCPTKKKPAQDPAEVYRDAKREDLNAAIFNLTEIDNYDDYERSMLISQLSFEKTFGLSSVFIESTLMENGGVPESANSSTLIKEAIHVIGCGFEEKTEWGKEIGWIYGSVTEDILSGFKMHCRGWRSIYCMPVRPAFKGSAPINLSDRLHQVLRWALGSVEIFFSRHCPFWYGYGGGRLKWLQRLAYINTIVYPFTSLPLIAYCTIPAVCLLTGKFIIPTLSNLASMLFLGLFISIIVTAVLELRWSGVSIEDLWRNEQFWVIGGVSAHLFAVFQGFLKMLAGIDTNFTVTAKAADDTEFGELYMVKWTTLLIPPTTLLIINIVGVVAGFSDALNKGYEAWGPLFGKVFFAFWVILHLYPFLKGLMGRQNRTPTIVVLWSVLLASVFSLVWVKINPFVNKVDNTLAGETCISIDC
# Tests used:
# SeHas = molecular target: T1, SeHas; assay: UDP-Glo luminescence, product inhibition, exponential fit; type: biochemical
# PttCesA8 = molecular target: T2, PttCesA8; assay: as above; type: biochemical
# purified protein = substrate: O=c1ccn([C@@H]2O[C@H](CO[P@@](=O)(O)O[P@@](=O)(O)O[C@H]3O[C@H](CO)[C@@H](O)[C@H](O)[C@H]3O)[C@@H](O)[C@H]2O)c(=O)[nH]1; assay: purified protein; conditions: 20 mM MnCl2, 37 °C, 30 min, proteoliposomes
Ki (SeHas),Ki (PttCesA8),Molecule,Km (purified protein),kcat (purified protein)
24.4 µM,10.1 µM,O=c1ccn([C@@H]2O[C@H](COP(=O)(O)OP(=O)(O)O)[C@@H](O)[C@H]2O)c(=O)[nH]1 [UDP],,
,,PttCesA8 (Populus tremula x Populus tremuloides) (protein) MMESGAPICHTCGEQVGHDANGDLFVACHECNYHICKSCFEYEIKEGRKVCLRCGSPYDENLLDDVEKKGSGNQSTMASHLNNSQDVGIHARHISSVSTVDSEMNDEYGNPIWKNRVESWKDKKNKKKKSNTKPETEPAQVPPEQQMENKPSAEASEPLSIVYPIPRNKLTPYRAVIIMRLIILGLFFHYRITNPVDSAFGLWLTSVICEIWFAFSWVLDQFPKWKPVNRETFIERLSARYEREGEPSQLAAVDFFVSTVDPLKEPPLITANTVLSILAVDYPVDKVSCYVSDDGAAMLTFESLVETAEFARKWVPFCKKFSIEPRAPEFYFSQKIDYLKDKVQPSFVKERRAMKRDYEEYKVRVNALVPKAQKTPDEGWTMQDGTPWPGNNTRDHPGMIQVFLGNTGARDIEGNELPRLVYVSREKRPGYQHHKKAGAENALVRVSAVLTNAPYILNLDCDHYVNNSKAVREAMCILMDPQVGRDVCYVQFPQRFDGIDRSDRYANRNIVFFDVNMKGLDGIQGPMYVGTGCVFNRQALYGYGPPSMPRLRKGKESSSCFSCCCPTKKKPAQDPAEVYRDAKREDLNAAIFNLTEIDNYDDYERSMLISQLSFEKTFGLSSVFIESTLMENGGVPESANSSTLIKEAIHVIGCGFEEKTEWGKEIGWIYGSVTEDILSGFKMHCRGWRSIYCMPVRPAFKGSAPINLSDRLHQVLRWALGSVEIFFSRHCPFWYGYGGGRLKWLQRLAYINTIVYPFTSLPLIAYCTIPAVCLLTGKFIIPTLSNLASMLFLGLFISIIVTAVLELRWSGVSIEDLWRNEQFWVIGGVSAHLFAVFQGFLKMLAGIDTNFTVTAKAADDTEFGELYMVKWTTLLIPPTTLLIINIVGVVAGFSDALNKGYEAWGPLFGKVFFAFWVILHLYPFLKGLMGRQNRTPTIVVLWSVLLASVFSLVWVKINPFVNKVDNTLAGETCISIDC,295.8 µM,21.57 s⁻¹
